Legend:
[1] = Solubility in water and organic solvents; format: physicochemical
Text: Paracetamol is soluble in Methanol, Ethanol, DMF, Ethylene chlorine, Benzyl ethanol and other organic solvents, but none of them can be used alone or in a mixture, because of their toxicity.

[2] = cited from earlier work
[3] = cited from earlier work; remark: listed apart in the source
liver cytochrome P-450 = details: in vivo; cited from earlier work

## CC(=O)Nc1ccc(O)cc1 [Paracetamol]
[1]; Methanol, Ethanol, DMF, Ethylene chlorine, Benzyl ethanol and other organic solvents
  solubility in organic solvents: soluble
[1]; water
  solubility in water: practically insoluble
[2]; intramuscular, blood level similar to that after oral administration
  absorption when intramuscularly administered: well absorbed
[2]; oral administration, does not exist with injectable Paracetamol
  loss of the drug observed after oral administration: 20%
[3]; glucouronic acid conjugate
  excreted through urines as conjugated derivative of glucouronic acid: 60%
[3]; sulfuric acid conjugate
  excreted through urines as conjugated derivative of sulfuric acid: 35%
[3]; total of sulfuric and glucouronic acid conjugates
  excreted through urines as conjugated derivatives: 95%
[3]; unchanged drug
  excreted unchangeable: 2%
Liver cytochrome P-450
  part oxidized by the liver cytochrome P-450 to a toxic intermediate metabolite: approx. 3%
